The nature of series [1]: physchem. The class given is physicochemical. To be noted: kinetic in PBS, pH 7.4. The method, then: (§1) The aqueous solubility and in vitro metabolic stability of selected analogs were assessed to determine if they had favorable parameters (Table 9 ).These analogs were selected based on their potency and the modifications that were incorporated, which led to compounds 55 and 56. […] The high lipophilicity of analogs 1, 11, and 16 was not favorable for metabolic stability.
(§2) This was performed as previously described.^[ [14] ^, [16] ^]

Another series can be described thus: in vitro. To be noted: for microsomal CLint: human, microsomes, human liver microsomes; for hepatocyte CLint: rat hepatocytes. It counts as in vitro ADME. The method, then:
as §1, §2

Series [2] is described as follows: physchem. It counts as physicochemical. To be noted: shake-flask method; for logD: read-out: eLogD. As for the experimental part:
as §2

The next series concerns the target Albumax (Bos taurus, UniProt P02769). The series can be described thus: in vitro. The class given is in vitro ADME. To be noted: for fraction unbound: bovine, isolated protein, read-out: Albumax binding % bound (converted).
The subject of series [3] is P. falciparum 3D7 parasites. Put plainly: P. falciparum 3D7 asexual stage parasite LDH assay, 72 h. The class given is cell-based, Plasmodium falciparum. To be noted: for fold reduction in antiplasmodial activity compared to W482 (1): ratio of 3D7 EC50 values; for EC50: Plasmodium falciparum, 3D7, 72 h, P. falciparum 3D7, LDH activity, 72 h exposure, means and SDs, 3 or more experiments, read-out: Pf parasite EC50 (SD). As for the experimental part: To establish the SAR, the antiparasitic activity of the analogs was determined using an assay that measures the lactate dehydrogenase (LDH) activity of asexual P. falciparum 3D7 parasites after 72 h of compound treatment. Mammalian cytotoxicity was monitored using an assay that measures the growth of HepG2 cells using Cell Titer‐Glo after 48 h of compound treatment.
This was performed as previously described, whereby lactate dehydrogenase (LDH) was used as a metabolic marker for parasite growth after a 72‐h incubation period.^[ [14] ^, [30] ^]

The subject of another series is PfABCI3-HAreg parasites. The series can be described thus: Parasite proliferation assay with PfABCI3-HAreg parasites (SYBR Safe, 72 h). It counts as cell-based, Plasmodium falciparum. To be noted: mean ± SEM, n = 4; for IC50: Plasmodium falciparum, 72 h. As for the experimental part: Glucosamine (GlcN) (5 mM) was used to reduce the level of pfabci3‐ha. Chloroquine and MMV020746 were used as negative and positive controls, respectively.
Figure 4 Sensitivity of PfABCI3‐HAreg parasites to growth inhibition by chloroquine (a), MMV020746 (b), and W482 (1) (c). Data for parasites in which pfabci3‐ha mRNA was reduced (+ GlcN) are shown in red. GlcN (5 mM) was added to the parasites 48 h prior to the assay and maintained throughout the 72 h assay. The data for parasites expressing a normal level of PfABCI3‐HA (‐GlcN) are shown in black. The data in all panels are from four independent experiments performed on different days. […] Parasites that were treated with or without GlcN (5 mM) were tested concurrently in each assay. TEXT PRINTED IN THE PICTURE: chloroquine: IC50 ± SEM (nM) - GlcN: 12.6 ± 1.1; IC50 ± SEM (nM) + GlcN: 11.9 ± 1.5 | MMV020746: IC50 ± SEM (nM) - GlcN: 104 ± 13; IC50 ± SEM (nM) + GlcN: 32.9 ± 3.9 | W482 (1): IC50 ± SEM (nM) - GlcN: 312 ± 28; IC50 ± SEM (nM) + GlcN: 153 ± 12
Parasite proliferation assays were performed with PfABCI3‐HAreg parasites^[ [19] ^] according to a previously described method, with the fluorescent nucleic acid intercalating dye SYBR Safe used to measure parasite viability.^[ [32] ^, [33] ^] The assays were commenced with cultures consisting of predominantly ring‐stage parasites with a starting hematocrit of 1% and parasitemia of 1%. […] It was shown previously that there is a reduction in pfabci3‐ha mRNA in PfABCI3‐HAreg exposed to 5 mM GlcN and a decrease in parasite viability over time.^[ [19] ^] The level of knockdown of the protein is not known.

Setting [4] is: read-out: Aqueous solubility pH 7.4.
[5] abbreviates: aqueous buffer, kinetic from dmso stock.

≈ marks a conversion by molar mass, not a printed value. Like-named read-outs stand apart in the source and are kept apart here. A value given as a limit tells only on which side of the number the result lay.

Albumax, sequence (P02769 25-607): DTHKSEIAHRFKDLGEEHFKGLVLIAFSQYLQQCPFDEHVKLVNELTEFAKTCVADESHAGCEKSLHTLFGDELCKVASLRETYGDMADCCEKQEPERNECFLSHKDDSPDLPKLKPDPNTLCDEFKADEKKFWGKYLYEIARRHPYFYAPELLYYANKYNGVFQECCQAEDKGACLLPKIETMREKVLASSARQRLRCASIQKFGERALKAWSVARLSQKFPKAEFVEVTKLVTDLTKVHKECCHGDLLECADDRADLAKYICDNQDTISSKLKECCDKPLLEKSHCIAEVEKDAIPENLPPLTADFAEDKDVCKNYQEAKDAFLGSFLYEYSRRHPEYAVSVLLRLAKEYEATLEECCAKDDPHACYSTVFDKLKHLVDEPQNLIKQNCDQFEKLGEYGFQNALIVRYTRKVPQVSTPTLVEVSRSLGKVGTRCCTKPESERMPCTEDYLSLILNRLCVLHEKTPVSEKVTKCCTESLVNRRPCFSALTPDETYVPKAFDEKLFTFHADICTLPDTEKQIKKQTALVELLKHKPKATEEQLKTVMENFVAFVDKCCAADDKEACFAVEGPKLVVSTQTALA

As a reminder, the solubility is the dissolved amount per volume that the medium holds. “3‐Cyclohexyl‐N‐(4‐((4‐(dimethylamino)quinazolin‐2‐yl)amino)phenyl)propenamide [Compound 16]”: the solubility in the series “physchem [1]” (setting [4]) amounted to 2.5 µM. Also, in “in vitro”, the “Human liver microsomes CLint” value was found to be 166 µL/min/mg and the “Rat hepatocytes CLint” value was above 92 µL/min/10^6 cells. For the same compound, the eLogD in the series “physchem [2]” is 4.6–5.0. Further, the “Albumax binding % bound” value on Albumax is given as 96.6%.
Regarding “3‐Cyclohexyl‐N‐(4‐((4‐methyl‐6‐(4‐methylpiperazin‐1‐yl)pyrimidin‐2‐yl)amino)phenyl)propenamide [Compound 11]”, the solubility in the series “physchem [1]” (setting [4]) came out at 2.6 µM. In addition, in the series “in vitro”, the “Rat hepatocytes CLint” value was above 92 µL/min/10^6 cells. Moreover, the eLogD in the series “physchem [2]” was 4.6–5.0. Also, the “Albumax binding % bound” value on Albumax stood at 99.9%.
In the case of “3‐Cyclohexyl‐N‐(4‐((4‐methyl‐6‐morpholinopyrimidin‐2‐yl)amino)phenyl)propenamide [Compound 9]”, the “fold reduction in antiplasmodial activity compared to W482 (1)” value (“fold reduction” for short) in series [3] is 4 fold.
Still for that read-out and setting: the same measure for “3‐Cyclohexyl‐N‐(6‐((4‐(dimethylamino)‐6‐methylpyrimidin‐2‐yl)amino)pyridin‐3‐yl)propenamide [Compound 25]”: 8 fold.
The term EC50 denotes the midpoint of the concentration-response curve. On to `Cc1cc(N(C)Cc2ccccc2)nc(Nc2ccc(NC(=O)CCC3CCCCC3)cc2)n1` [Compound 6, N‐(4‐((4‐(Benzyl(methyl)amino)‐6‐methylpyrimidin‐2‐yl)amino)phenyl)‐3‐cyclohexylpropanamide], for which the EC50 in series [3] was 600 nM.
Same read-out and setting: the same measure for `Cc1cc(Nc2ccc(NC(=O)CCC3CCCCC3)cc2)nc(N(C)C)c1` [Compound 19, 3‐Cyclohexyl‐N‐(4‐((6‐(dimethylamino)‐4‐methylpyridin‐2‐yl)amino)phenyl)propanamide]: 610 nM.
The same measure, in the same setting: the same measure for `Cc1cc(N(C)C)cc(Nc2ccc(NC(=O)CCC3CCCCC3)cc2)n1` [Compound 20, 3‐Cyclohexyl‐N‐(4‐((4‐(dimethylamino)‐6‐methylpyridin‐2‐yl)amino)phenyl)propanamide]: 880 nM.
For `CN(C)c1nc(Nc2ccc(NC(=O)CCC3CCCCC3)cc2)cc2ccccc12` [Compound 21, 3‐Cyclohexyl‐N‐(4‐((1‐(dimethylamino)isoquinolin‐3‐yl)amino)phenyl)propanamide], the EC50 in series [3] was above 10000 nM.
As for `Cc1cc(N(C)C)nc(Nc2ccc(NC(=O)c3cccs3)cc2)n1` [Compound 27], the EC50 in series [3] was 1440 nM.
Still for that read-out and setting: the same measure for `Cc1cc(N(C)C)nc(Nc2ccc(NC(=O)c3ccco3)cc2)n1` [Compound 28]: 3900 nM; for `Cc1cc(N(C)C)nc(Nc2ccc(NC(=O)c3ccc4ccccc4c3)cc2)n1` [Compound 29]: 360 nM; for `Cc1cc(N(C)C)nc(Nc2ccc(NC(=O)C(C)C)cc2)n1` [Compound 30]: 3760 nM.
Still for that read-out and setting: the same measure for `Cc1cc(N(C)C)nc(Nc2ccc(NC(=O)C(C)(C)C)cc2)n1` [Compound 31]: 3360 nM; for `Cc1cc(N(C)C)nc(Nc2ccc(NC(=O)CC(C)C)cc2)n1` [Compound 32]: 1630 nM.
Regarding `Cc1cc(N(C)C)nc(Nc2ccc(NC(=O)C3CCCCC3)cc2)n1` [Compound 33], the EC50 in series [3] was determined as 930 nM.
For `Cc1cc(N(C)C)nc(Nc2ccc(NC(=O)CCC3CCCC3)cc2)n1` [Compound 34], in series [3], the EC50 came out at 1000 nM and the “fold reduction” value was determined as 2 fold.
For the compound `Cc1cc(N(C)C)nc(Nc2ccc(NC(=O)c3ccccc3Cl)cc2)n1` [Compound 35], in series [3], the EC50 was 2120 nM.
`Cc1cc(N(C)C)nc(Nc2ccc(NC(=O)c3ccccc3Br)cc2)n1` [Compound 36]: the EC50 in series [3] worked out at 1850 nM.
Take `Cc1cc(N(C)C)nc(Nc2ccc(NC(=O)c3ccccc3C(F)(F)F)cc2)n1` [Compound 37]: in series [3], the EC50 is 850 nM and the “fold reduction” value is 2 fold.
Regarding `Cc1cc(N(C)C)nc(Nc2ccc(NC(=O)c3cccc(F)c3)cc2)n1` [Compound 38], in series [3], the EC50 is 780 nM and the “fold reduction” value came to 2 fold.
Take `Cc1cc(N(C)C)nc(Nc2ccc(NC(=O)c3cccc(Br)c3)cc2)n1` [Compound 39]: the EC50 in series [3] amounted to 450 nM.
Regarding `Cc1cccc(C(=O)Nc2ccc(Nc3nc(C)cc(N(C)C)n3)cc2)c1` [Compound 40], in series [3], the EC50 was 1080 nM and the “fold reduction” value was found to be 2 fold.
On to `Cc1cc(C)cc(C(=O)Nc2ccc(Nc3nc(C)cc(N(C)C)n3)cc2)c1` [Compound 41], for which the EC50 in series [3] is 590 nM.
Still for that read-out and setting: the same measure for `Cc1cc(N(C)C)nc(Nc2ccc(NC(=O)c3ccc(C)c(C)c3)cc2)n1` [Compound 42]: 660 nM; for `COc1cc(OC)cc(C(=O)Nc2ccc(Nc3nc(C)cc(N(C)C)n3)cc2)c1` [Compound 43]: 640 nM.
Consider `COc1ccc(Cl)cc1C(=O)Nc1ccc(Nc2nc(C)cc(N(C)C)n2)cc1` [Compound 44], for which, in series [3], the EC50 worked out at 490 nM.
Same read-out and setting: the same measure for `Cc1cc(N(C)C)nc(Nc2ccc(NC(=O)Nc3ccccc3F)cc2)n1` [Compound 45]: 3420 nM.
Still for that read-out and setting: next, `Cc1cc(N(C)C)nc(Nc2ccc(NC(=O)Nc3ccccc3Cl)cc2)n1` [Compound 46]: above 10000 nM.
In the case of `Cc1cc(N(C)C)nc(Nc2ccc(NC(=O)Nc3ccccc3C)cc2)n1` [Compound 47], in series [3], the half-maximal effective concentration (EC50) is 410 nM.
Consider `COc1ccccc1NC(=O)Nc1ccc(Nc2nc(C)cc(N(C)C)n2)cc1` [Compound 48], for which, in series [3], the EC50 is 380 nM.
The same measure, in the same setting: next, `Cc1cc(N(C)C)nc(Nc2ccc(NC(=O)Nc3cccc(Cl)c3)cc2)n1` [Compound 49]: 240 nM; `Cc1cccc(NC(=O)Nc2ccc(Nc3nc(C)cc(N(C)C)n3)cc2)c1` [Compound 50]: 240 nM.
What is called microsomal CLint is the rate of metabolic loss divided by the concentration. Low values mean greater metabolic stability, high ones faster metabolism. By hepatocyte CLint is commonly meant the capacity of the preparation to metabolise the compound, expressed as a volume cleared per time. A low value points to slow turnover. Take `Cc1cc(N(C)C)nc(Nc2ccc(NC(=O)Nc3ccc(F)cc3)cc2)n1` [Compound 51]: the EC50 in series [3] was 300 nM. The same compound yielded a solubility in the series “physchem [1]” (setting [5]) of 3.7 µM (≈ 1.41 µg/mL). In “in vitro”, this compound displayed a microsomal CLint of 26 µL/min/mg and a hepatocyte CLint of 32 µL/min/1e6 cells. Further, in the series “physchem [2]”, the logD was determined as 3. Besides, the fraction unbound at Albumax was 0.016.
Take `Cc1cc(N(C)C)nc(Nc2ccc(NC(=O)Nc3ccc(Cl)cc3)cc2)n1` [Compound 52]: the EC50 in series [3] was 340 nM.
For `Cc1ccc(NC(=O)Nc2ccc(Nc3nc(C)cc(N(C)C)n3)cc2)cc1` [Compound 53], the EC50 in series [3] stood at 440 nM.
As for `COc1ccc(NC(=O)Nc2ccc(Nc3nc(C)cc(N(C)C)n3)cc2)cc1` [Compound 54], the EC50 in series [3] was determined as 400 nM.
Regarding `O=C(CCC1CCCCC1)Nc1ccc(Nc2nc(N3CCNCC3)c3ccccc3n2)cc1` [Compound 55, 3‐Cyclohexyl‐N‐(4‐((4‐(piperazin‐1‐yl)quinazolin‐2‐yl)amino)phenyl)propanamide], the EC50 in series [3] is 230 nM. This compound had a solubility in “physchem [1]” (setting [5]) of 2.5 µM (≈ 1.15 µg/mL). Also, in the series “in vitro”, the “Human liver microsomes CLint” value was found to be 117 µL/min/mg, the intrinsic clearance (microsomal CLint) is above 117 µL/min/mg and the hepatocyte CLint is 27 µL/min/1e6 cells. In the series “physchem [2]”, the logD amounted to 3.2. In addition, at Albumax, the fraction unbound is 0.002.
With `O=C(Nc1ccc(F)cc1)Nc1ccc(Nc2nc(N3CCNCC3)c3ccccc3n2)cc1` [Compound 56, 1‐(4‐Fluorophenyl)‐3‐(4‐((4‐(piperazin‐1‐yl)quinazolin‐2‐yl)amino)phenyl)urea], the EC50 in series [3] amounted to 180 nM. This compound also displayed a solubility in “physchem [1]” (setting [5]) of 9.6 µM (≈ 4.39 µg/mL). The hepatocyte CLint in “in vitro” was found to be 21 µL/min/1e6 cells. Also, in the series “physchem [2]”, the logD is 2.2. Further, the fraction unbound at Albumax was 0.001.
In general, IC50 refers to the point on the concentration scale where inhibition reaches its midpoint. Consider `CCN(CC)CCCC(C)Nc1ccnc2cc(Cl)ccc12` (stereo not shown) [chloroquine, reference compound], for which the IC50 with PfABCI3-HAreg parasites (PfABCI3-HAreg parasites expressing normal level of PfABCI3-HA (-GlcN)) was 12.6 ± 1.1 nM; with PfABCI3-HAreg parasites (PfABCI3-HAreg parasites with reduced pfabci3-ha mRNA (+ 5 mM GlcN)), 11.9 ± 1.5 nM. The “fold lower IC50 for +GlcN parasites than -GlcN parasites” value in the series on PfABCI3-HAreg parasites was “equally potent”.
